Data published in PubChem BioAssay (NCI).
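All cell lines were grown in 96-well plates and treated with compound for 48 hours. TGI: concentration producing complete growth inhibition.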

How the values were obtained:
Test in all cases: growth of human tumour cells (NCI), 48 h
[1] = tested on: 786-0 renal
[2] = tested on: A498 renal
[3] = tested on: A549 NSCLC
[4] = tested on: ACHN renal
[5] = tested on: CAKI-1 renal
[6] = tested on: CCRF-CEM leukemia
[7] = tested on: COLO 205 colon
[8] = tested on: DLD-1 colon
[9] = tested on: DMS 114 small cell lung
[10] = tested on: EKVX NSCLC
[11] = tested on: HCC-2998 colon
[12] = tested on: HCT-116 colon
[13] = tested on: HCT-15 colon
[14] = tested on: HL-60(TB) leukemia
[15] = tested on: HOP-62 NSCLC
[16] = tested on: HOP-92 NSCLC
[17] = tested on: IGROV1 ovarian
[18] = tested on: K-562 leukemia
[19] = tested on: KM12 colon
[20] = tested on: KM20L2 colon
[21] = tested on: LOX IMVI melanoma
[22] = tested on: LXFL 529 NSCLC
[23] = tested on: M14 melanoma
[24] = tested on: M19-MEL melanoma
[25] = tested on: MALME-3M melanoma
[26] = tested on: MOLT-4 leukemia
[27] = tested on: NCI-H23 lung
[28] = tested on: NCI-H460 lung
[29] = tested on: NCI-H522 lung
[30] = tested on: OVCAR-3 ovarian
[31] = tested on: OVCAR-4 ovarian
[32] = tested on: OVCAR-5 ovarian
[33] = tested on: OVCAR-8 ovarian
[34] = tested on: RPMI-8226 leukemia
[35] = tested on: RXF 393 renal
[36] = tested on: SF-268 CNS
[37] = tested on: SF-539 CNS
[38] = tested on: SK-MEL-2 melanoma
[39] = tested on: SK-MEL-28 melanoma
[40] = tested on: SK-MEL-5 melanoma
[41] = tested on: SK-OV-3 ovarian
[42] = tested on: SNB-19 CNS
[43] = tested on: SNB-75 CNS
[44] = tested on: SNB-78 CNS
[45] = tested on: SW-620 colon
[46] = tested on: TK-10 renal
[47] = tested on: U251 CNS
[48] = tested on: UACC-257 melanoma
[49] = tested on: UACC-62 melanoma
[50] = tested on: UO-31 renal
[51] = tested on: DU-145 prostate
[52] = tested on: HS 578T breast
[53] = tested on: HT29 colon
[54] = tested on: MCF7 breast
[55] = tested on: MDA-MB-231 breast
[56] = tested on: MDA-MB-435
[57] = tested on: MDA-N
[58] = tested on: NCI-H226 lung
[59] = tested on: NCI/ADR-RES ovarian
[60] = tested on: PC-3 prostate
[61] = tested on: SF-295 CNS
[62] = tested on: SN12C renal
[63] = tested on: SR leukemia
[64] = tested on: T-47D breast

SMILES: N#Cc1ccccc1NC(=O)/C(=N\Nc1ccc([N+](=O)[O-])cc1)C1C(=O)NC(=O)NC1=O
- TGI [1]: > 100 µM
- TGI [2]: > 100 µM
- TGI [3]: > 100 µM
- TGI [4]: > 100 µM
- TGI [5]: > 100 µM
- TGI [6]: > 100 µM
- TGI [7]: > 100 µM
- TGI [8]: > 100 µM
- TGI [9]: > 100 µM
- TGI [10]: > 100 µM
- TGI [11]: > 100 µM
- TGI [12]: > 100 µM
- TGI [13]: > 100 µM
- TGI [14]: > 100 µM
- TGI [15]: > 100 µM
- TGI [16]: 74.8 µM
- TGI [17]: > 100 µM
- TGI [18]: > 100 µM
- TGI [19]: > 100 µM
- TGI [20]: > 100 µM
- TGI [21]: > 100 µM
- TGI [22]: > 100 µM
- TGI [23]: > 100 µM
- TGI [24]: > 100 µM
- TGI [25]: > 100 µM
- TGI [26]: > 100 µM
- TGI [27]: > 100 µM
- TGI [28]: > 100 µM
- TGI [29]: > 100 µM
- TGI [30]: > 100 µM
- TGI [31]: > 100 µM
- TGI [32]: > 100 µM
- TGI [33]: > 100 µM
- TGI [34]: > 100 µM
- TGI [35]: > 100 µM
- TGI [36]: > 100 µM
- TGI [37]: > 100 µM
- TGI [38]: > 100 µM
- TGI [39]: > 100 µM
- TGI [40]: > 100 µM
- TGI [41]: > 100 µM
- TGI [42]: > 100 µM
- TGI [43]: > 100 µM
- TGI [44]: > 100 µM
- TGI [45]: > 100 µM
- TGI [46]: > 100 µM
- TGI [47]: > 100 µM
- TGI [48]: > 100 µM
- TGI [49]: > 100 µM
- TGI [50]: > 100 µM

SMILES: CCCN=Cc1c(O)c(O)c(C(C)C)c2cc(C)c(-c3c(C)cc4c(C(C)C)c(O)c(O)c(C=NCCC)c4c3O)c(O)c12
- TGI [1]: 39.3 µM
- TGI [2]: 65.3 µM
- TGI [3]: > 100 µM
- TGI [4]: > 30.7 µM
- TGI [5]: > 100 µM
- TGI [6]: 13.4 µM
- TGI [7]: > 32.3 µM
- TGI [9]: 4.54 µM
- TGI [51]: > 100 µM
- TGI [10]: > 100 µM
- TGI [11]: 44.3 µM
- TGI [12]: 14.3 µM
- TGI [13]: 48.1 µM
- TGI [14]: > 23.6 µM
- TGI [15]: > 77.4 µM
- TGI [16]: 8.51 µM
- TGI [52]: > 100 µM
- TGI [53]: > 24.9 µM
- TGI [17]: > 100 µM
- TGI [18]: > 82.7 µM
- TGI [19]: > 32.6 µM
- TGI [20]: > 100 µM
- TGI [21]: 24.5 µM
- TGI [22]: 14.7 µM
- TGI [23]: > 21 µM
- TGI [24]: 20.1 µM
- TGI [54]: 71.1 µM
- TGI [55]: > 100 µM
- TGI [56]: > 100 µM
- TGI [57]: > 100 µM
- TGI [26]: > 70.1 µM
- TGI [58]: 47.8 µM
- TGI [27]: > 81.9 µM
- TGI [28]: > 61.1 µM
- TGI [29]: 5.73 µM
- TGI [59]: > 100 µM
- TGI [30]: > 24.4 µM
- TGI [31]: > 100 µM
- TGI [32]: > 50.3 µM
- TGI [33]: > 100 µM
- TGI [60]: 62.2 µM
- TGI [34]: > 100 µM
- TGI [35]: 16.5 µM
- TGI [36]: > 100 µM
- TGI [61]: > 24.7 µM
- TGI [37]: > 28.8 µM
- TGI [38]: 7.44 µM
- TGI [39]: > 78.3 µM
- TGI [40]: 49.1 µM
- TGI [41]: > 30.8 µM
- TGI [62]: 93.6 µM
- TGI [42]: > 100 µM
- TGI [43]: > 100 µM
- TGI [44]: 13.4 µM
- TGI [63]: > 100 µM
- TGI [45]: > 100 µM
- TGI [64]: > 100 µM
- TGI [46]: > 100 µM
- TGI [47]: 44.8 µM
- TGI [48]: > 40.1 µM
- TGI [50]: 22.6 µM

SMILES: c1ccc(C2(c3ccccc3)SSC3(S2)C2CC4CC(C2)CC3C4)cc1 (stereo not given)
- TGI [1]: > 100 µM
- TGI [2]: > 100 µM
- TGI [3]: > 100 µM
- TGI [4]: > 100 µM
- TGI [5]: > 100 µM
- TGI [6]: > 100 µM
- TGI [8]: > 100 µM
- TGI [9]: > 100 µM
- TGI [10]: > 100 µM
- TGI [11]: > 100 µM
- TGI [12]: > 100 µM
- TGI [13]: > 100 µM
- TGI [14]: > 100 µM
- TGI [16]: > 100 µM
- TGI [53]: > 100 µM
- TGI [17]: > 100 µM
- TGI [18]: > 100 µM
- TGI [19]: > 100 µM
- TGI [20]: > 100 µM
- TGI [21]: > 100 µM
- TGI [22]: > 100 µM
- TGI [23]: > 100 µM
- TGI [25]: > 100 µM
- TGI [26]: > 100 µM
- TGI [27]: > 100 µM
- TGI [28]: > 100 µM
- TGI [31]: > 100 µM
- TGI [32]: > 100 µM
- TGI [33]: > 100 µM
- TGI [34]: > 100 µM
- TGI [35]: > 100 µM
- TGI [36]: > 100 µM
- TGI [61]: > 100 µM
- TGI [37]: > 100 µM
- TGI [38]: > 100 µM
- TGI [39]: > 100 µM
- TGI [40]: > 100 µM
- TGI [41]: > 100 µM
- TGI [62]: > 100 µM
- TGI [42]: > 100 µM
- TGI [43]: > 100 µM
- TGI [44]: > 100 µM
- TGI [63]: > 100 µM
- TGI [45]: > 100 µM
- TGI [46]: > 100 µM
- TGI [47]: > 100 µM
- TGI [48]: > 100 µM
- TGI [49]: > 100 µM
- TGI [50]: > 100 µM
